What was measured:
Format in all cases: cell-based, human
[1] = tested on: VEGF genomic site; assay: T7 Endonuclease I Surveyor assay of genomic modification; conditions: FIG. 2
Description: (§1) The presence of two bands corresponding to smaller DNA fragments (the fragments are approximately the same size for EMX) indicates genomic modification.
(§2) 4-HT (1 μM) was added during transfection for +4-HT samples. 12 hours after transfection the media was replaced. 60 hours after transfection, cells were trypsinized and genomic DNA was isolated using the DNAdvance kit (Agencourt). […] PCR products were purified with a QIAquick PCR Purification Kit (Qiagen) and quantified with a Quant-iT PicoGreen dsDNA Kit (Life Technologies). 200 ng of purified PCR DNA was then combined with 2 μL of NEBuffer 2 (NEB) in a total volume of 19 μL and denatured then re-annealed with thermocycling at 95° C. for 5 min, 95-85° C. at 2° C./s, 85-20° C. at 0.2° C./s. The re-annealed DNA was incubated with 1 μL of T7 Endonuclease I (10 U/μL, NEB) at 37° C. for 15 min. 10 μL of 50% glycerol was added to the T7 Endonuclease reaction and 15 μL was analyzed on a 5% TBE 18-well Criterion PAGE gel (Bio-Rad) electrophoresed for 30 min at 200V and stained with EtBr for 15 min.

[2] = tested on: CLTA genomic site; assay: as above; conditions: FIG. 2
Description: as §1, §2

[3] = tested on: EMX genomic site; assay: as above; conditions: FIG. 2
Description: as §1, §2

[4] = tested on: EMX, VEGF, and CLTA genomic loci; assay: High-throughput DNA sequencing of genome modifications, summary over on-target and off-target sites
Description: We assayed these Cas9:sgRNA combinations in human cells for their ability to modify the three on-target loci as well as 11 known off-target genomic sites (Table 3)^4,5,10,13. Cells were treated with or without 1 μM 4-HT during transfection, and after 12 h the media was replaced with fresh media lacking 4-HT. […] Genomic DNA was isolated 60 h post-transfection and analyzed by high-throughput DNA sequencing
High-throughput DNA sequencing of genome modifications. HEK293-GFP stable cells were transfected with plasmids expressing Cas9 (500 ng) and sgRNA (125 ng) as described above. […] 4-HT (1 μM final), where appropriate, was added during transfection. 12 h after transfection, the media was replaced with full serum media without 4-HT. Genomic DNA was isolated and pooled from three biological replicates 60 h after transfection using a previously reported^11 protocol with a DNAdvance Kit (Agencourt). 150 ng or 200 ng of genomic DNA was used as a template to amplify by PCR the on-target and off-target genomic sites with flanking HTS primer pairs described previously^11. PCR products were purified using RapidTips (Diffinity Genomics) and quantified using the PicoGreen dsDNA Assay Kit (Invitrogen). Purified DNA was PCR amplified with primers containing sequencing adaptors, purified with the MinElute PCR Purification Kit (Qiagen) and AMPure XP PCR Purification (Agencourt). Samples were sequenced on a MiSeq high-throughput DNA sequencer (Illumina), and sequencing data was analyzed as described previously^4.
Sensitivity limit of off-target cleavage assays. We used paired end sequencing to identify indels caused by genomic on- and off-target cleavage. […] A 1 ng sample of human gDNA represents only ˜330 unique genomes, and thus only ˜330 unique copies of each genomic site are present. PCR amplification for each genomic target was performed on a total of 150 ng or 200 ng of input gDNA, which provides amplicons derived from at most 50,000 or 65,000 unique gDNA copies, respectively. Therefore, the high-throughput sequencing assay cannot detect rare genome modification events that occur at a frequency of less than approximately 1 in 50,000 (0.002%). When comparing between two conditions, such as wt Cas9 vs. intein-Cas9, this threshold becomes approximately 10 in 50,000 (0.02%) when using the Fisher exact test and a conservative multiple comparison correction (Bonferroni with 14 samples). See also Minoche, A. E., Dohm, J. C., & Himmelbauer, H. Evaluation of genomic high-throughput sequencing data generated on Illumina HiSeq and Genome Analyzer systems. Genome Biology 12, R112 (2011).

Substance | Genomic modification of target site (T7E1 gel) ([1]; +4-HT (1 μM)) | Genomic modification of target site (T7E1 gel) ([1]; absence of 4-HT) | Genomic modification of target site (T7E1 gel) ([2]; +4-HT (1 μM)) | Genomic modification of target site (T7E1 gel) ([2]; absence of 4-HT) | Genomic modification of target site (T7E1 gel) ([3]; +4-HT (1 μM)) | Genomic modification of target site (T7E1 gel) ([3]; absence of 4-HT) | Activity compared to wild-type Cas9 ([4]; absence of 4-HT) | Activity compared to wild-type Cas9 ([4]; presence of 4-HT) | Off-target modification frequency, average fold lower than wild-type Cas9 (80 ng) ([4]; EMX locus, all four off-target sites, +4-HT, similar on-target cleavage) [fold]
intein(Ser219)-Cas9: Cas9 with 37R3-2 intein replacing Ser219 (SEQ ID NO: 30) | comparable to modification by wild-type Cas9 | minimal or no modification | comparable to modification by wild-type Cas9 | some background cleavage | comparable to modification by wild-type Cas9 | minimal or no modification | much less active | slightly less active than wild-type Cas9 | 
intein(Cys574)-Cas9: Cas9 with 37R3-2 intein replacing Cys574 (SEQ ID NO: 33) | comparable to modification by wild-type Cas9 | minimal or no modification | comparable to modification by wild-type Cas9 | some background cleavage | comparable to modification by wild-type Cas9 | minimal or no modification | much less active | slightly less active than wild-type Cas9 | 4
